Measured values taken from PubChem BioAssay AID1963975 (Molecular Pharmacology Branch, DTP, NCI, 2024).

Tested on: 624824-186-R-J2-PDC multicell spheroids, viability
Experiment: Anticancer human tumor 624824-186-R-J2-PDC patient-derived colon adenocarcinoma cell line growth inhibition [PI3K]
Details: for IC50: curve of first compound; for viability, T/C: stronger effect = lower value
Method in brief: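 Three cell types, namely tumor cells, endothelial cells and mesenchymal stem cells, formed each spheroid. Combinations with four PI3K inhibitors were screened at clinically achievable concentrations decreasing by half-log, and spheroid viability was recorded.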

[1] = second compound 0.0316 µM, first compound 0.0316 µM
[2] = second compound 0.0316 µM, first compound 0.1 µM
[3] = second compound 0.0316 µM, first compound 0.316 µM
[4] = second compound 0.0316 µM, first compound 1 µM
[5] = second compound 0.0316 µM, first compound 3.16 µM
[6] = second compound 0.0316 µM, first compound 10 µM
[7] = second compound 0.1 µM, first compound 0.0316 µM
[8] = second compound 0.1 µM, first compound 0.1 µM
[9] = second compound 0.1 µM, first compound 0.316 µM
[10] = second compound 0.1 µM, first compound 1 µM
[11] = second compound 0.1 µM, first compound 3.16 µM
[12] = second compound 0.1 µM, first compound 10 µM
[13] = second compound 0.316 µM, first compound 0.0316 µM
[14] = second compound 0.316 µM, first compound 0.1 µM
[15] = second compound 0.316 µM, first compound 0.316 µM
[16] = second compound 0.316 µM, first compound 1 µM
[17] = second compound 0.316 µM, first compound 3.16 µM
[18] = second compound 0.316 µM, first compound 10 µM
[19] = second compound 1 µM, first compound 0.0316 µM
[20] = second compound 1 µM, first compound 0.1 µM
[21] = second compound 1 µM, first compound 0.316 µM
[22] = second compound 1 µM, first compound 1 µM
[23] = second compound 1 µM, first compound 3.16 µM
[24] = second compound 1 µM, first compound 10 µM
[25] = second compound 3.16 µM, first compound 0.0316 µM
[26] = second compound 3.16 µM, first compound 0.1 µM
[27] = second compound 3.16 µM, first compound 0.316 µM
[28] = second compound 3.16 µM, first compound 1 µM
[29] = second compound 3.16 µM, first compound 3.16 µM
[30] = second compound 3.16 µM, first compound 10 µM
[31] = second compound 10 µM, first compound 0.0316 µM
[32] = second compound 10 µM, first compound 0.1 µM
[33] = second compound 10 µM, first compound 0.316 µM
[34] = second compound 10 µM, first compound 1 µM
[35] = second compound 10 µM, first compound 3.16 µM
[36] = second compound 10 µM, first compound 10 µM
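Also: spheroids exposed to agents for 7 days before viability read.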
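For viability, T/C in this document: 100% = DMSO vehicle treated spheroids.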

Cn1ncc(Cl)c1-c1cc(C(=O)NC(CN)Cc2cccc(F)c2)sc1Cl (stereo unspecified) + CC(Nc1ncnc2nc[nH]c12)c1cc2cccc(Cl)c2c(=O)n1-c1ccccc1
IC50 (second compound 0.0316 µM): > 10 µM
IC50 (second compound 0.1 µM): 9.49 µM
IC50 (second compound 0.316 µM): > 10 µM
IC50 (second compound 1 µM): 7.07 µM
IC50 (second compound 3.16 µM): > 10 µM
IC50 (second compound 10 µM): 9.26 µM
viability, T/C [1]: 73.9%
viability, T/C [2]: 85.7%
viability, T/C [3]: 71.5%
viability, T/C [4]: 68.3%
viability, T/C [5]: 57.2%
viability, T/C [6]: 55.1%
viability, T/C [7]: 80.1%
viability, T/C [8]: 67.8%
viability, T/C [9]: 80.7%
viability, T/C [10]: 73%
viability, T/C [11]: 67.6%
viability, T/C [12]: 49.2%
viability, T/C [13]: 95.3%
viability, T/C [14]: 86.4%
viability, T/C [15]: 67%
viability, T/C [16]: 69%
viability, T/C [17]: 63.6%
viability, T/C [18]: 47.8%
viability, T/C [19]: 82.1%
viability, T/C [20]: 95.8%
viability, T/C [21]: 71%
viability, T/C [22]: 78.2%
viability, T/C [23]: 62.3%
viability, T/C [24]: 44.2%
viability, T/C [25]: 79.9%
viability, T/C [26]: 91.6%
viability, T/C [27]: 78.8%
viability, T/C [28]: 70.2%
viability, T/C [29]: 69.8%
viability, T/C [30]: 50.6%
viability, T/C [31]: 104%
viability, T/C [32]: 73.2%
viability, T/C [33]: 89.7%
viability, T/C [34]: 68.7%
viability, T/C [35]: 64.1%
viability, T/C [36]: 47.1%

Cn1nccc1Nc1nccc(-c2ccn(C(CO)c3ccc(Cl)c(F)c3)c(=O)c2)n1 (stereo unspecified) + CC(Nc1ncnc2nc[nH]c12)c1cc2cccc(Cl)c2c(=O)n1-c1ccccc1
IC50 (second compound 0.0316 µM): > 10 µM
IC50 (second compound 0.1 µM): > 10 µM
IC50 (second compound 0.316 µM): > 10 µM
IC50 (second compound 1 µM): > 10 µM
IC50 (second compound 3.16 µM): > 10 µM
IC50 (second compound 10 µM): > 10 µM
viability, T/C [1]: 73.9%
viability, T/C [2]: 61.6%
viability, T/C [3]: 72.4%
viability, T/C [4]: 76.7%
viability, T/C [5]: 87.6%
viability, T/C [6]: 85.4%
viability, T/C [7]: 110%
viability, T/C [8]: 83.8%
viability, T/C [9]: 78%
viability, T/C [10]: 74.7%
viability, T/C [11]: 82.4%
viability, T/C [12]: 89.6%
viability, T/C [13]: 90.7%
viability, T/C [14]: 94%
viability, T/C [15]: 59.5%
viability, T/C [16]: 66.1%
viability, T/C [17]: 82.1%
viability, T/C [18]: 83.7%
viability, T/C [19]: 96%
viability, T/C [20]: 87.4%
viability, T/C [21]: 67.8%
viability, T/C [22]: 74.2%
viability, T/C [23]: 80.3%
viability, T/C [24]: 79.7%
viability, T/C [25]: 106%
viability, T/C [26]: 70.2%
viability, T/C [27]: 61.9%
viability, T/C [28]: 77.7%
viability, T/C [29]: 75.5%
viability, T/C [30]: 63.7%
viability, T/C [31]: 82.1%
viability, T/C [32]: 90.2%
viability, T/C [33]: 85.9%
viability, T/C [34]: 70.8%
viability, T/C [35]: 67.8%
viability, T/C [36]: 61%

Cn1ncnc1[C@H]1c2n[nH]c(=O)c3cc(F)cc(c23)N[C@@H]1c1ccc(F)cc1 + CC(Nc1ncnc2nc[nH]c12)c1cc2cccc(Cl)c2c(=O)n1-c1ccccc1
IC50 (second compound 0.0316 µM): > 0.1 µM
IC50 (second compound 0.1 µM): > 0.1 µM
IC50 (second compound 0.316 µM): > 0.1 µM
IC50 (second compound 1 µM): > 0.1 µM
IC50 (second compound 3.16 µM): > 0.1 µM
IC50 (second compound 10 µM): > 0.1 µM
viability, T/C (second compound 0.0316 µM, first compound 0.000316 µM): 82.5%
viability, T/C (second compound 0.0316 µM, first compound 0.001 µM): 85.3%
viability, T/C (second compound 0.0316 µM, first compound 0.00316 µM): 87.6%
viability, T/C (second compound 0.0316 µM, first compound 0.01 µM): 89%
viability, T/C [1]: 75.7%
viability, T/C [2]: 86%
viability, T/C (second compound 0.1 µM, first compound 0.000316 µM): 94.6%
viability, T/C (second compound 0.1 µM, first compound 0.001 µM): 85%
viability, T/C (second compound 0.1 µM, first compound 0.00316 µM): 89.5%
viability, T/C (second compound 0.1 µM, first compound 0.01 µM): 94.1%
viability, T/C [7]: 82.8%
viability, T/C [8]: 103%
viability, T/C (second compound 0.316 µM, first compound 0.000316 µM): 115%
viability, T/C (second compound 0.316 µM, first compound 0.001 µM): 102%
viability, T/C (second compound 0.316 µM, first compound 0.00316 µM): 96.5%
viability, T/C (second compound 0.316 µM, first compound 0.01 µM): 87.5%
viability, T/C [13]: 110%
viability, T/C [14]: 86.2%
viability, T/C (second compound 1 µM, first compound 0.000316 µM): 72.6%
viability, T/C (second compound 1 µM, first compound 0.001 µM): 90.8%
viability, T/C (second compound 1 µM, first compound 0.00316 µM): 81.7%
viability, T/C (second compound 1 µM, first compound 0.01 µM): 89.4%
viability, T/C [19]: 81.4%
viability, T/C [20]: 97.8%
viability, T/C (second compound 3.16 µM, first compound 0.000316 µM): 91.1%
viability, T/C (second compound 3.16 µM, first compound 0.001 µM): 94%
viability, T/C (second compound 3.16 µM, first compound 0.00316 µM): 94.2%
viability, T/C (second compound 3.16 µM, first compound 0.01 µM): 92.1%
viability, T/C [25]: 83.5%
viability, T/C [26]: 78.1%
viability, T/C (second compound 10 µM, first compound 0.000316 µM): 88.5%
viability, T/C (second compound 10 µM, first compound 0.001 µM): 85.6%
viability, T/C (second compound 10 µM, first compound 0.00316 µM): 106%
viability, T/C (second compound 10 µM, first compound 0.01 µM): 106%
viability, T/C [31]: 100%
viability, T/C [32]: 88.4%
